Reference: patent US20230416248A1, “COMPOUNDS AND USES THEREOF” (Foghorn Therapeutics Inc., priority 2020, published 2023)

Assays:
BRM = molecular target: T1, BRM (Homo sapiens, UniProt P51531); test: ATPase catalytic activity of BRM, ADP-Glo in vitro biochemical assay; settings: for IC50: ADP-Glo ATPase assay, 30 nM BRM, 400 μM ATP; for Ratio* (BRG1 IC50 (μM) divided by BRM IC50 (μM)): selectivity ratio BRG1 IC50 / BRM IC50
T1 construct: made in house; host or cells: High Five insect cells
Procedure, shortened: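 Recombinant BRM (30 nM) hydrolysed 400 μM ATP with 20 nM salmon sperm DNA in pH 8 Tris buffer containing 20 mM MgCl2, 50 mM NaCl, 0.1% Tween-20 and 1 mM DTT, 1 h at room temperature. ADP formed was quantified by ADP-Glo luminescence.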

BRG-1 = molecular target: T2, BRG-1 (Homo sapiens, UniProt P51532); test: ATPase catalytic activity of BRG-1, ADP-Glo in vitro biochemical assay; settings: ADP-Glo ATPase assay, 30 nM BRG-1, 400 μM ATP; read-out: BRG1 IC50
T2 construct: made in house; host or cells: High Five insect cells
T2 sequence (P51532 whole entry): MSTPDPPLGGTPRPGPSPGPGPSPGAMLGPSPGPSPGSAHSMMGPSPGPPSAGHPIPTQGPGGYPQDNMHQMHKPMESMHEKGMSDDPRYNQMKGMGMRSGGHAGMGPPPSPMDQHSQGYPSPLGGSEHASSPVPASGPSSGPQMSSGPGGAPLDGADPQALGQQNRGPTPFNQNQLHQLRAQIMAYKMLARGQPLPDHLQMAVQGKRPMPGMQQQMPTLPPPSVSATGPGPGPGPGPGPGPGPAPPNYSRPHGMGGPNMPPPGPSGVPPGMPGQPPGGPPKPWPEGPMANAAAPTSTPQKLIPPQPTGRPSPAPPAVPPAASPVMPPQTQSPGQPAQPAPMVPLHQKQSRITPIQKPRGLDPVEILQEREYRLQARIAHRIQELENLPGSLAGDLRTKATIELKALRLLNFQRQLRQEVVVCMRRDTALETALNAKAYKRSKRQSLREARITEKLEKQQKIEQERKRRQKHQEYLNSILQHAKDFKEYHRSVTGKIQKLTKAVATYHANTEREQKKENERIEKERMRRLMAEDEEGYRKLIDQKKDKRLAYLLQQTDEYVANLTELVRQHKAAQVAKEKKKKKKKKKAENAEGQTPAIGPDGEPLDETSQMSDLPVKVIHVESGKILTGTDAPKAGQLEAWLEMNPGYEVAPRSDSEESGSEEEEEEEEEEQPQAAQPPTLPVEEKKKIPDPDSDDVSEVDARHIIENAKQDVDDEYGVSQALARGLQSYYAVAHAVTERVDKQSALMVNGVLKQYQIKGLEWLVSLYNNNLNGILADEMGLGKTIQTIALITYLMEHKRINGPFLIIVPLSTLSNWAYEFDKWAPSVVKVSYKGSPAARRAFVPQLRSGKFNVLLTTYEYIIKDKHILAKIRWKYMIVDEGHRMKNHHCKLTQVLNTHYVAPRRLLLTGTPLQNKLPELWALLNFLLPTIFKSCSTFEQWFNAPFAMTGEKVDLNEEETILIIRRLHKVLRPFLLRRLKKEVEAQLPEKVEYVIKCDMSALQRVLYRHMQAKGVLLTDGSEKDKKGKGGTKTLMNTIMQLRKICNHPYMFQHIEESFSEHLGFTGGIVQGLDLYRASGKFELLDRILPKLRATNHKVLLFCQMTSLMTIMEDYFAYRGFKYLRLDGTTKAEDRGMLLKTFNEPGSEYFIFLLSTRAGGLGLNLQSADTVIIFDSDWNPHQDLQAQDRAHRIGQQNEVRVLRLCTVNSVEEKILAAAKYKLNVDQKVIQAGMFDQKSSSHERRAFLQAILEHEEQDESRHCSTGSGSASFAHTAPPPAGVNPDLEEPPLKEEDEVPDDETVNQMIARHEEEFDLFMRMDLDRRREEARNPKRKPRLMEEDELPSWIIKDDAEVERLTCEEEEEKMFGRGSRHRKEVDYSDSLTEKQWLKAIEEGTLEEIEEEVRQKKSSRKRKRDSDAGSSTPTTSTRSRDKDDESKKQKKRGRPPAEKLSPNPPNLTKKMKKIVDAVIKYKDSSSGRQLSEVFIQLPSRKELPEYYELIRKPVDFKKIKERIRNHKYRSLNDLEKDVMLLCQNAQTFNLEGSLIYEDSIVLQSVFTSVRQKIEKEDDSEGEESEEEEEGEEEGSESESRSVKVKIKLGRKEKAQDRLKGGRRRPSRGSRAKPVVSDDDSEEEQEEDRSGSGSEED
Procedure, shortened: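 Signal reflects ADP produced by the enzyme, quantified as luminescence after unused ATP is cleared and ADP is reconverted to ATP for the luciferase reaction; both steps run at room temperature, 40 and 60 min respectively.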

T1 sequence (P51531 whole entry): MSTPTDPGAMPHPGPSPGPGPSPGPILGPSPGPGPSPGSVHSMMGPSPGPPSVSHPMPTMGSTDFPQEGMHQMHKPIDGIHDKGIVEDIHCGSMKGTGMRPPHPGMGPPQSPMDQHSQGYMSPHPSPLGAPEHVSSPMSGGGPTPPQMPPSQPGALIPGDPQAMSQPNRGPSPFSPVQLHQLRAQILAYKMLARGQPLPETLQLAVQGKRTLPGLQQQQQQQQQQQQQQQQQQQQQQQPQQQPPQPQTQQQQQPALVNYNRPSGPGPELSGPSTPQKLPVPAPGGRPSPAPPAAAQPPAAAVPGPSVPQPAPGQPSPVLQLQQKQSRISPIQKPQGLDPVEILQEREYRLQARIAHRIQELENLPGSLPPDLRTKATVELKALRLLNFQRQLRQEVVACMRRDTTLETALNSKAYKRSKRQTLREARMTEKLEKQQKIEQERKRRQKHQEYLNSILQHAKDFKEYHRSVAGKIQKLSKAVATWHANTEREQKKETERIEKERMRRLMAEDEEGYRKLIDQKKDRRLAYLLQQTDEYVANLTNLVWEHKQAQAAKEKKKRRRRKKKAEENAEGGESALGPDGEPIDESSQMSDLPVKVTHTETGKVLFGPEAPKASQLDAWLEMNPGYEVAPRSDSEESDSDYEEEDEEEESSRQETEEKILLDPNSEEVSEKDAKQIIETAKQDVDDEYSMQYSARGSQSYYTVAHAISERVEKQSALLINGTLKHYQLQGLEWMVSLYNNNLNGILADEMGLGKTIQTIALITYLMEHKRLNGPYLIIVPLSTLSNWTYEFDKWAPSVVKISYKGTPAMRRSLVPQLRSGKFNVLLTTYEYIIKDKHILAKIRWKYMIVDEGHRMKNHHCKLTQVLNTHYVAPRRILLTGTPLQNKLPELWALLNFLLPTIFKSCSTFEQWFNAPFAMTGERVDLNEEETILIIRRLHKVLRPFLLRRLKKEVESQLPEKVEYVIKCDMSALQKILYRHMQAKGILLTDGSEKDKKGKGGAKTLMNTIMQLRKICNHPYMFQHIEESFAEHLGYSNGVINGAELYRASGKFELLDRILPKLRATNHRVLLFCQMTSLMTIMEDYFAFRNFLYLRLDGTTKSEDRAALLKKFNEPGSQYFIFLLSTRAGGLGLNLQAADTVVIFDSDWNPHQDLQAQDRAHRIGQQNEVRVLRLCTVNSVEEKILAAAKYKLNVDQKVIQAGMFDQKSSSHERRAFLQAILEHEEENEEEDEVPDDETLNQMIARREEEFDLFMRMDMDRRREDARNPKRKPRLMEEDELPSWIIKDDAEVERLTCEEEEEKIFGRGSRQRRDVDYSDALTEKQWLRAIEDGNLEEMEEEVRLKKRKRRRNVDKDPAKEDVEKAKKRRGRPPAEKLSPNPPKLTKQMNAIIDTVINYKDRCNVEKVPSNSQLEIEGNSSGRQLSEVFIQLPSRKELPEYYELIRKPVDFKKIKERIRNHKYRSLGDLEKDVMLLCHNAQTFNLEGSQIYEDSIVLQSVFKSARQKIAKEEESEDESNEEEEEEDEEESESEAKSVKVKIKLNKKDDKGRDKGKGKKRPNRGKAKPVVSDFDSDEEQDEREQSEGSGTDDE

Structure (SMILES) | IC50 (BRM) [nM] | Ratio* (BRG1 IC50 (μM) divided by BRM IC50 (μM)) (BRM) | IC50 (BRG-1) [nM]
CC(F)(F)COc1cccc(-c2ccc3cnc(CNC(=O)c4ccc5c(c4)S(=O)(=O)CCOC5)cc3n2)n1 [Compound 126] | 33.5 | 8.80 | 295
O=C(NCc1cc2nc(-c3cccc4c3CCCN4CC(F)F)ccc2cn1)c1ccc2c(c1)S(=O)(=O)CCOC2 [Compound 127] | 846 | 4.79 | 4050
O=C(NCc1cc2nc(-c3cccc(N4CC5(C4)CC5(F)F)n3)ccc2cn1)c1ccc2c(c1)S(=O)(=O)CCOC2 [Compound 128] | 42.6 | 10.99 | 468
Cc1cc2c(-c3ccc4cnc(CNC(=O)c5ccc(Cl)c(S(C)(=O)=O)c5)cc4n3)cccc2n1C [Compound 129] | 47.9 | 11.91 | 570
Cc1cc2c(-c3ccc4cnc(CNC(=O)c5ccc6c(c5)S(=O)(=O)CCOC6)cc4n3)cccc2n1C [Compound 130] | 10.7 | 9.77 | 104
O=C(NCc1cc2nc(-c3cccc4c3OCCN4CC(F)F)ccc2cn1)c1ccc2c(c1)S(=O)(=O)CCOC2 [Compound 131] | 71.6 | 7.12 | 510
C[C@@H]1CN(c2cccc(-c3ccc4cnc(CNC(=O)c5cnc(C(F)F)c(S(C)(=O)=O)c5)cc4n3)n2)C[C@H](C)O1 [Compound 132] | 12.5 | 16.30 | 204
O=C(NCc1cc2nc(-c3cccc(C4CCOCC4)n3)ccc2cn1)c1ccc2c(c1)S(=O)(=O)CCOC2 [Compound 133] | 61.5 | 7.91 | 487
COc1nn([C@H]2C[C@@H](F)C2)cc1-c1ccc2cnc(CNC(=O)c3ccc4c(c3)S(=O)(=O)CCOC4)cc2c1 [Compound 134] | 186 | 13.28 | 2460
COCCOc1cccc(-c2ccc3cnc(CNC(=O)c4ccc5c(c4)S(=O)(=O)CCOC5)cc3n2)c1 [Compound 135] | 112 | 9.48 | 1060
Cn1ccc2ccc(-c3ccc4cnc(CNC(=O)c5ccc6c(c5)S(=O)(=O)CCOC6)cc4n3)nc21 [Compound 136] | 33.4 | 7.15 | 239
O=C(NCc1cc2nc(-c3ccc(F)c(OC(F)F)n3)ccc2cn1)c1ccc2c(c1)S(=O)(=O)CCOC2 [Compound 137] | 22.5 | 16.99 | 382
C[C@@H]1CN(c2cccc(-c3ccc4cnc(CNC(=O)c5ccc(CC(F)F)c(S(C)(=O)=O)c5)cc4n3)n2)C[C@H](C)O1 [Compound 138] | 10.8 | 4.70 | 50.7
O=C(NCc1cc2nc(-c3ccc4c(n3)OCC4)ccc2cn1)c1ccc2c(c1)S(=O)(=O)CCOC2 [Compound 139] | 432 | 4.81 | 2070
O=C(NCc1cc2nc(-c3ccc4ccn(CC(F)F)c4n3)ccc2cn1)c1ccc2c(c1)S(=O)(=O)CCOC2 [Compound 140] | 35.2 | 6.92 | 243
C[C@@H]1CN(c2cccc(-c3cnc4cnc(CNC(=O)c5ccc6c(c5)S(=O)(=O)CCOC6)cc4n3)c2)C[C@H](C)O1 [Compound 141] | 13 | 12.97 | 169
O=C(NCc1cc2nc(-c3cccc(C4(F)COC4)n3)ccc2cn1)c1ccc2c(c1)S(=O)(=O)CCOC2 [Compound 142] | 230 | 11.55 | 2660
C[C@@H]1CN(c2cccc(-c3ccc4cnc(CNC(=O)c5cc(Cl)c6c(c5)S(=O)(=O)CCOC6)cc4n3)n2)C[C@H](C)O1 [Compound 143] | 7.6 | 14.36 | 108
CN1CCN(c2cccc(-c3ccc4cnc(CNC(=O)c5ccc6c(c5)S(=O)(=O)CCOC6)cc4n3)n2)CC1 [Compound 144] | 147 | 9.21 | 1350
COCCN(C)c1cccc(-c2ccc3cnc(CNC(=O)c4ccc5c(c4)S(=O)(=O)CCOC5)cc3n2)n1 [Compound 145] | 3.6 | 15.77 | 57.1
Cc1cc2c(-c3ccc4cnc(CNC(=O)c5ccc6c(c5)S(=O)(=O)CCOC6)cc4n3)ccnc2n1C [Compound 146] | 15.3 | 12.92 | 197
